For assay [1], the target named is T1, MRGPRX2-MUT (MRGPRX2 N62S mutation) (Homo sapiens, UniProt Q96LB1, N62S).
T1 construct: expressed in transfected cells
T1 sequence (Q96LB1 1-330 N62S): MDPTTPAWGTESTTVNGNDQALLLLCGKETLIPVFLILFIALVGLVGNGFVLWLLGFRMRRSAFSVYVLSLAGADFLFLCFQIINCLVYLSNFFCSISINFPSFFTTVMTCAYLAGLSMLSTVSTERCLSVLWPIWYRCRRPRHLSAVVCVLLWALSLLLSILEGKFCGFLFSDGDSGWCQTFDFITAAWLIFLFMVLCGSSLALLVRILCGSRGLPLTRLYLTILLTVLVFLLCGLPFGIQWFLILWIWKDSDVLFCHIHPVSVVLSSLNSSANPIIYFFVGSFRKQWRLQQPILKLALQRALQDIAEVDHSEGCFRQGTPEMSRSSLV
Briefly: Primary HTS, Ca2+ mobilization (fluorescence ratio, B-score) in HEK293-Gα15 cells stably expressing the MRGPRX2 N62S mutation. Type of assay: cell-based. The conditions noted are these: for B-scores (MUT): 10 μM compound, MRGPRX2-MUT (N62S) cells; for Change of B-scores (%): 10 μM.

Assay [2] addresses T2, MRGPRX2-WT (wild-type MRGPRX2 receptor) (Homo sapiens, UniProt Q96LB1).
T2 construct: expressed in transfected cells
T2 sequence (Q96LB1 1-330): T1 sequence (Q96LB1 1-330 N62S) with S62N
The assay is described as follows: Primary HTS, Ca2+ mobilization (fluorescence ratio, B-score) in HEK293-Gα15 cells stably expressing wild-type MRGPRX2. Type of assay: cell-based. Particulars: 10 μM compound.

[3] abbreviates: MRGPRX2-MUT versus MRGPRX2-WT cells, Supplementary Table 2.
The mark [4] stands for this setting: MRGPRX2-MUT in comparison to MRGPRX2-WT cells, Supplementary Table 1.
[5] abbreviates: MRGPRX2-MUT in comparison to MRGPRX2-WT cells, Table 1.

Numbering of substitutions follows the chain as printed. Counter-ions that a name gives are not always drawn.

Regarding `CN1[C@@H]2CC[C@H]1C[C@@H](OC(=O)[C@H](CO)c1ccccc1)C2` [Hyoscyamine], the “B-scores (MUT)” value in assay [1] (Supplementary Table 2) is listed as 0.65. Besides, the “Change of B-scores (%)” value in assay [1] (setting [3]) is -96.31%. Besides, the “B-scores (WT)” value in assay [2] (Supplementary Table 2) is given as 17.72.

Consider `CC(C)NCC(O)c1cc(O)cc(O)c1` (stereo not shown) [Metaproterenol], for which the “B-scores (MUT)” value in assay [1] (Supplementary Table 1) and in assay [1] (Supplementary Table 2) was 2.41 each time. Also, the “Change of B-scores (%)” value in assay [1] (setting [4]) and in assay [1] (setting [3]) was -88.28% each time. Also, the “B-scores (WT)” value in assay [2] (Supplementary Table 1) and in assay [2] (Supplementary Table 2) was 20.54 each time.

`CC(CN(C)C)CN1c2ccccc2CCc2ccccc21` (stereo not shown) [Trimipramine Maleate]: the “B-scores (MUT)” value in assay [1] (Supplementary Table 1) and in assay [1] (Table 1) was 3.48 in each case. Further, the “Change of B-scores (%)” value in assay [1] (setting [4]) and in assay [1] (setting [5]) was -84.91% each time. The “B-scores (WT)” value in assay [2] (Supplementary Table 1) and in assay [2] (Table 1) was 23.09 each time.

Take `COc1ccc([C@@H]2Sc3ccccc3N(CCN(C)C)C(=O)[C@@H]2OC(C)=O)cc1` [Diltiazem Hydrochloride]: the “Change of B-scores (%)” value in assay [1] (setting [4]) is -104.18%. Moreover, the “B-scores (WT)” value in assay [2] (Supplementary Table 1) is on record as 22.99.

Turning to `CN(C)CCOC(c1ccccc1)c1ccc(Br)cc1.Cl` (stereo not shown) [Bromazine hydrochloride], the “B-scores (MUT)” value in assay [1] (Supplementary Table 2) is recorded as -0.05. Further, in assay [1] (setting [3]), the “Change of B-scores (%)” value is on record as -100.41%. For the same molecule, the “B-scores (WT)” value in assay [2] (Supplementary Table 2) is 11.37.

`CN1CCC(=C2c3ccccc3C=Cc3ccccc32)CC1` [Cyproheptadine Hydrochloride]: the “B-scores (MUT)” value in assay [1] (Supplementary Table 1) and in assay [1] (Table 1) was 2.29 each time. In addition, the “Change of B-scores (%)” value in assay [1] (setting [4]) and in assay [1] (setting [5]) was -94.50% in each case. The “B-scores (WT)” value in assay [2] (Supplementary Table 1) and in assay [2] (Table 1) was 41.66 each time.

`C[CH2][Hg][S]c1ccccc1C(=O)[O-].[Na+]` [Thimerosal]: the “B-scores (MUT)” value in assay [1] (Supplementary Table 1) worked out at 0.33. In assay [1] (setting [4]), the “Change of B-scores (%)” value is reported as -98.25%. The “B-scores (WT)” value in assay [2] (Supplementary Table 1) worked out at 18.55.

As for `CO[C@@H](C(=O)N1Cc2n[nH]c(NC(=O)c3ccc(N4CCN(C)CC4)cc3)c2C1)c1ccccc1` [Danusertib], the “B-scores (MUT)” value in assay [1] (Supplementary Table 1) and in assay [1] (Table 1) was 0.61 throughout. For the same molecule, the “Change of B-scores (%)” value in assay [1] (setting [4]) and in assay [1] (setting [5]) was -97.00% each time. Further, the “B-scores (WT)” value in assay [2] (Supplementary Table 1) and in assay [2] (Table 1) was 20.37 throughout.

In the case of `CC(=O)c1ccc2c(c1)N(CCCN(C)C)c1ccccc1S2` [Acepromazine Maleate], the “B-scores (MUT)” value in assay [1] (Supplementary Table 1) and in assay [1] (Supplementary Table 2) was 28.97 in each case. Besides, the “Change of B-scores (%)” value in assay [1] (setting [4]) and in assay [1] (setting [3]) was -34.19% throughout. In addition, the “B-scores (WT)” value in assay [2] (Supplementary Table 1) and in assay [2] (Supplementary Table 2) was 44.01 each time.

As to Buserelin, the “B-scores (MUT)” value in assay [1] (Supplementary Table 1) and in assay [1] (Table 1) was 5.73 in each case. Moreover, the “Change of B-scores (%)” value in assay [1] (setting [4]) and in assay [1] (setting [5]) was -71.99% each time. In addition, the “B-scores (WT)” value in assay [2] (Supplementary Table 1) and in assay [2] (Table 1) was 20.46 each time.

For `CN(C)CCN(Cc1ccc(Cl)cc1)c1ccccn1.Cl` [Chloropyramine Hydrochloride], the “B-scores (MUT)” value in assay [1] (Supplementary Table 2) stood at 3.24. Moreover, the “Change of B-scores (%)” value in assay [1] (setting [3]) is reported as -77.83%. Also, in assay [2] (Supplementary Table 2), the “B-scores (WT)” value is 14.6.

`CN(C)CCCN1c2ccccc2Sc2ccc(Cl)cc21` [Chlorpromazine]: the “B-scores (MUT)” value in assay [1] (Supplementary Table 2) was -0.05. Moreover, the “Change of B-scores (%)” value in assay [1] (setting [3]) was -100.54%. For the same molecule, in assay [2] (Supplementary Table 2), the “B-scores (WT)” value is 10.2.

For `CN1CCN(c2cc3c(cc2F)c(=O)c(C(=O)O)cn3-c2ccc(F)cc2)CC1` [Difloxacin Hydrochloride], the “B-scores (MUT)” value is 1.54 in assay [1] (Supplementary Table 1), -1.54 in assay [1] (Supplementary Table 2) and -1.54 in assay [1] (Table 1). Moreover, the “Change of B-scores (%)” value in assay [1] (setting [4]), in assay [1] (setting [5]) and in assay [1] (setting [3]) was -103.45% throughout. For the same molecule, the “B-scores (WT)” value in assay [2] (Supplementary Table 1), in assay [2] (Supplementary Table 2) and in assay [2] (Table 1) was 44.81 each time.

As for `CC(C)NCC(O)c1ccc(O)c(O)c1` (stereo not shown) [Isoproterenol Hydrochloride], the “B-scores (MUT)” value in assay [1] (Supplementary Table 2) is listed as -0.05. Also, the “Change of B-scores (%)” value in assay [1] (setting [4]) is -100.26%; in assay [1] (MRGPRX2-MUT in comparison to MRGPRX2-WT cells, Supplementary Table 1, listed as Isoprenaline hydrochloride), -100.25%; in assay [1] (setting [3]), -100.26%. Besides, the “B-scores (WT)” value amounted to 20.95 in assay [2] (Supplementary Table 1); 21.82 in assay [2] (Supplementary Table 1, listed as Isoprenaline hydrochloride); 20.95 in assay [2] (Supplementary Table 2).

Turning to `COc1ccc2cc1Oc1ccc(cc1)C[C@H]1c3c(cc4c(c3Oc3cc5c(cc3OC)CCN(C)[C@@H]5C2)OCO4)CCN1C` [Cepharanthine], the “B-scores (MUT)” value in assay [1] (Supplementary Table 1) and in assay [1] (Table 1) was 1.14 throughout. The “Change of B-scores (%)” value in assay [1] (setting [4]) and in assay [1] (setting [5]) was -94.20% in each case. Moreover, the “B-scores (WT)” value in assay [2] (Supplementary Table 1) and in assay [2] (Table 1) was 19.73 in each case.

Turning to “Corticotropin A (SYSMEHFRWGKPVGKKRRPVKVYPNGAEDESAEAFPLEF; Corticotropin; UniProt P01189 138-176, looked up) [Adrenocorticotropic hormone (ACTH)]”, in assay [1] (Supplementary Table 1), the “B-scores (MUT)” value came out at 15.06. In assay [1] (setting [4]), the “Change of B-scores (%)” value is -59.51%. In assay [2] (Supplementary Table 1), the “B-scores (WT)” value stood at 37.20.

`CNCCCN1c2ccccc2CCc2ccccc21` [Desipramine Hydrochloride]: the “B-scores (MUT)” value in assay [1] (Supplementary Table 2) is reported as -2.96. Further, in assay [1] (setting [3]), the “Change of B-scores (%)” value is given as -139.62%. Further, in assay [2] (Supplementary Table 2), the “B-scores (WT)” value is given as 7.48.

With `CN(C)CCC=C1c2ccccc2CCc2ccccc21` [Amitriptyline hydrochloride], in assay [1] (Supplementary Table 2), the “B-scores (MUT)” value amounted to 1.83. Further, in assay [1] (setting [3]), the “Change of B-scores (%)” value was -88.77%. In assay [2] (Supplementary Table 2), the “B-scores (WT)” value was 16.31.

Take `CCOC(=O)N1CCC(=C2c3ccc(Cl)cc3CCc3cccnc32)CC1` [Loratadine]: in assay [1] (Table 1), the “B-scores (MUT)” value is -3.30. The “Change of B-scores (%)” value in assay [1] (setting [4]) and in assay [1] (setting [5]) was -115.04% each time. Also, the “B-scores (WT)” value in assay [2] (Supplementary Table 1) and in assay [2] (Table 1) was 21.95 each time.

For `CN(C)CCCN1c2ccccc2CCc2ccccc21` [Imipramine Hydrochloride], the “B-scores (MUT)” value in assay [1] (Supplementary Table 1) is on record as 16.90; in assay [1] (Supplementary Table 2), 16.9; in assay [1] (Table 1), 16.90. The “Change of B-scores (%)” value in assay [1] (setting [4]), in assay [1] (setting [5]) and in assay [1] (setting [3]) was -47.47% in each case. Also, the “B-scores (WT)” value in assay [2] (Supplementary Table 1), in assay [2] (Supplementary Table 2) and in assay [2] (Table 1) was 32.17 throughout.

Regarding `CN(C)CCN1C(=O)c2ccccc2N(C)c2ccccc21` [Dibenzepin], the “B-scores (MUT)” value in assay [1] (Table 1) is -1.62. Moreover, the “Change of B-scores (%)” value in assay [1] (setting [4]) and in assay [1] (setting [5]) was -106.37% throughout. In addition, the “B-scores (WT)” value in assay [2] (Supplementary Table 1) and in assay [2] (Table 1) was 25.48 each time.

Take `CNCCC(Oc1ccc(C(F)(F)F)cc1)c1ccccc1` (stereo not shown) [Fluoxetine]: the “B-scores (MUT)” value in assay [1] (Supplementary Table 1) and in assay [1] (Table 1) was 7.14 throughout. Also, the “Change of B-scores (%)” value in assay [1] (setting [4]) and in assay [1] (setting [5]) was -80.32% throughout. The “B-scores (WT)” value in assay [2] (Supplementary Table 1) and in assay [2] (Table 1) was 36.30 in each case.

Regarding `CN(C)CCC=C1c2ccccc2C=Cc2ccccc21` [Cyclobenzaprine Hydrochloride], the “B-scores (MUT)” value in assay [1] (Supplementary Table 2) worked out at 1.22. Further, the “Change of B-scores (%)” value in assay [1] (setting [3]) was -92.62%. For the same molecule, in assay [2] (Supplementary Table 2), the “B-scores (WT)” value is reported as 16.49.

As to `COC(=O)C1=CCCN(C)C1` [Arecoline Hydrobromide], the “B-scores (MUT)” value in assay [1] (Supplementary Table 1) is on record as 58.08. Moreover, the “Change of B-scores (%)” value in assay [1] (setting [4]) is listed as 101.79%. In addition, the “B-scores (WT)” value in assay [2] (Supplementary Table 1) is given as 28.78.

For the molecule `CC(=O)OC(C)C[N+](C)(C)C` (stereo not shown) [Methacholine Chloride], the “B-scores (MUT)” value in assay [1] (Supplementary Table 1) amounted to 37.31. In addition, the “Change of B-scores (%)” value in assay [1] (setting [4]) came to 43.29%. For the same molecule, the “B-scores (WT)” value in assay [2] (Supplementary Table 1) is on record as 26.04.

For `CN1CCC(=C2c3ccccc3CCc3sccc32)CC1.O=C(O)CC(O)C(=O)O` [Pizotyline Malate], in assay [1] (Supplementary Table 1), the “B-scores (MUT)” value is 1.29. Further, the “Change of B-scores (%)” value in assay [1] (setting [4]) is reported as -96.75%. The “B-scores (WT)” value in assay [2] (Supplementary Table 1) worked out at 39.73.

On to `CC(CN(C)C)CN1c2ccccc2Sc2ccccc21.CC(CN(C)C)CN1c2ccccc2Sc2ccccc21.O=C(O)C(O)C(O)C(=O)O` (stereo not shown) [Trimeprazine Tartrate], for which the “B-scores (MUT)” value in assay [1] (Supplementary Table 1) is 19.11. The “Change of B-scores (%)” value in assay [1] (setting [4]) is recorded as -29.51%. In addition, in assay [2] (Supplementary Table 1), the “B-scores (WT)” value is recorded as 27.11.
